Target: T1, GLUT1 (Homo sapiens, UniProt P11166)
T1 sequence (P11166 1-492): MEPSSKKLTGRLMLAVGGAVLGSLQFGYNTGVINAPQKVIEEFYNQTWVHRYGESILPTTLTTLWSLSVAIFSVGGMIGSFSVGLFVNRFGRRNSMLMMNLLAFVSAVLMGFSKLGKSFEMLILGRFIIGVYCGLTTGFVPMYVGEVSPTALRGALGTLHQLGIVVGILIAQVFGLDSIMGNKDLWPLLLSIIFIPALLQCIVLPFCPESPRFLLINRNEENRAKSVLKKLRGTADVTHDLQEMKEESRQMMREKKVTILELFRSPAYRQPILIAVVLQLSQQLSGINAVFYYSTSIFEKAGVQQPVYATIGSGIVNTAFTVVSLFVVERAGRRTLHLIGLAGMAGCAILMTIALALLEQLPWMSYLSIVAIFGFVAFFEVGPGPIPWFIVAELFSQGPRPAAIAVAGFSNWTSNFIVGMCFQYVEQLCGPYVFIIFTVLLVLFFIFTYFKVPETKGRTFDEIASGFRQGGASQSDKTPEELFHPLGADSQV
Experiment: Indirect measurement of GLUT1 activity by quantification of intracellular ATP levels (glucose induced ATP increase)
Type: cell-based
Parameters: endogenous in cells; host or cells: DLD1 or CHO-K1
Conditions: read-out: IC50 regarding glucose induced ATP increase (GLUT1 inhibition)
Description: Indirect Measurement of GLUT1 and GLUT2 Activity by Quantification of Intracellular ATP Levels
It is well known that a combination of small-molecule inhibitors of mitochondrial electron transport chain and glucose catabolism synergistically suppress ATP production and impair cellular viability (Ulanovskaya et al., 2008, 2011; Liu, et al. 2001). We therefore used DLD1 or CHO-K1 cells in combination with an oxidative phosphorylation inhibitor to identify GLUT1 and GLUT2 inhibitors. Cell lines were maintained in DMEM medium supplemented with 10% FCS and 1% Penicillin-Streptomycin solution and 2% Glutamax. The cells were treated with trypsin and seeded into 384 plates at a density of 4000 cells/well. The cells were then cultured overnight in glucose free media containing 1% FCS to reduce intracellular ATP levels. […] The CellTiter-Glo® Luminescent Cell Viability Assay from Promega was then used to measure ATP Levels.

SMILES	IC50
Cc1nn(Cc2ccc(F)cc2)c(C)c1NC(=O)c1cc(C(F)(F)F)nc2cccc(Br)c12 [Example 34, 5-bromo-N-[1-(4-fluorobenzyl)-3,5-dimethyl-1H-pyrazol-4-yl]-2-(trifluoromethyl)quinoline-4-carboxamide]	25.2 nM
Cc1nn(Cc2ccc(F)c(F)c2)c(C)c1NC(=O)c1cc(C(F)(F)F)nc2c(Cl)cc(Cl)cc12 [Example 35, 6,8-dichloro-N-[1-(3,4-difluorobenzyl)-3,5-dimethyl-1H-pyrazol-4-yl]-2-(trifluoromethyl)quinoline-4-carboxamide]	25.6 nM
Cc1nn(Cc2ccc(F)cc2)c(C)c1NC(=O)c1cc(Br)nc2ccccc12 [Example 36, 2-bromo-N-[1-(4-fluorobenzyl)-3,5-dimethyl-1H-pyrazol-4-yl]quinoline-4-carboxamide]	88.9 nM
Cc1nn(Cc2ccc(F)cc2)c(C)c1NC(=O)c1c2c(nc3ccc(Br)cc13)CCCC2 [Example 37, 7-bromo-N-[1-(4-fluorobenzyl)-3,5-dimethyl-1H-pyrazol-4-yl]-1,2,3,4-tetrahydroacridine-9-carboxamide]	26.7 nM
Cc1c(NC(=O)c2cc(C(F)(F)F)nc3c(Cl)cc(Cl)cc23)c(C(F)(F)F)nn1Cc1ccc(F)cc1 [Example 38, 6,8-dichloro-N-[1-(4-fluorobenzyl)-5-methyl-3-(trifluoromethyl)-1H-pyrazol-4-yl]-2-(trifluoromethyl)quinoline-4-carboxamide]	29.5 nM
Cc1nn(Cc2ccc(F)cc2)c(C)c1NC(=O)c1cc(C(F)(F)F)nc2cc(F)c(F)cc12 [Example 39, 6,7-difluoro-N-[1-(4-fluorobenzyl)-3,5-dimethyl-1H-pyrazol-4-yl]-2-(trifluoromethyl)quinoline-4-carboxamide]	30 nM
Cc1nn(Cc2ccc(F)cc2)c(C)c1NC(=O)c1cc(C2CC2)nc2c(F)cccc12 [Example 40, 2-cyclopropyl-8-fluoro-N-[1-(4-fluorobenzyl)-3,5-dimethyl-1H-pyrazol-4-yl]quinoline-4-carboxamide]	30 nM
Cc1nn(Cc2ccc(F)cc2F)c(C)c1NC(=O)c1cc(C(F)(F)F)nc2ccc(Br)cc12 [Example 41, 6-bromo-N-[1-(2,4-difluorobenzyl)-3,5-dimethyl-1H-pyrazol-4-yl]-2-(trifluoromethyl)quinoline-4-carboxamide]	30 nM
COc1cc(C(=O)Nc2c(C)nn(Cc3c(F)cccc3F)c2C)c2ccccc2n1 [Example 42, N-[1-(2,6-difluorobenzyl)-3,5-dimethyl-1H-pyrazol-4-yl]-2-methoxyquinoline-4-carboxamide]	30.9 nM
Cc1cc(C(=O)Nc2c(C)nn(Cc3ccc(F)cc3)c2C)c2cc(Br)ccc2n1 [Example 43, 6-bromo-N-[1-(4-fluorobenzyl)-3,5-dimethyl-1H-pyrazol-4-yl]-2-methylquinoline-4-carboxamide]	31.7 nM
Cc1ccc2nc(C)cc(C(=O)Nc3c(C)nn(Cc4ccc(C#N)cc4)c3C)c2c1 [Example 44, N-[1-(4-cyanobenzyl)-3,5-dimethyl-1H-pyrazol-4-yl]-2,6-dimethylquinoline-4-carboxamide]	32.1 nM
Cc1ccc(Cn2nc(C)c(NC(=O)c3cc(C)nc4ccc(C)cc34)c2C)cc1 [Example 45, N-[3,5-dimethyl-1-(4-methylbenzyl)-1H-pyrazol-4-yl]-2,6-dimethylquinoline-4-carboxamide]	35.4 nM
Cc1nn(Cc2ccc(F)cc2)c(C)c1NC(=O)c1cc(C2CC2)nc2cccc(F)c12 [Example 46, 2-cyclopropyl-5-fluoro-N-[1-(4-fluorobenzyl)-3,5-dimethyl-1H-pyrazol-4-yl]quinoline-4-carboxamide]	40 nM
Cc1nn(Cc2ccc(F)c(F)c2)c(C)c1NC(=O)c1cc(C(F)(F)F)nc2ccc(Br)cc12 [Example 47, 6-bromo-N-[1-(3,4-difluorobenzyl)-3,5-dimethyl-1H-pyrazol-4-yl]-2-(trifluoromethyl)quinoline-4-carboxamide]	44.4 nM
Cc1nn(Cc2ccc(F)cc2F)c(C)c1NC(=O)c1cc(C(F)(F)F)nc2c(Cl)cc(Cl)cc12 [Example 48, 6,8-dichloro-N-[1-(2,4-difluorobenzyl)-3,5-dimethyl-1H-pyrazol-4-yl]-2-(trifluoromethyl)quinoline-4-carboxamide]	44.4 nM
Cc1nn(Cc2c(F)cc(F)cc2F)c(C)c1NC(=O)c1cc(C(F)(F)F)nc2ccc(Br)cc12 [Example 49, 6-bromo-N-[3,5-dimethyl-1-(2,4,6-trifluorobenzyl)-1H-pyrazol-4-yl]-2-(trifluoromethyl)quinoline-4-carboxamide]	50 nM

SMILES	IC50
COc1cc(C(=O)Nc2c(C)nn(Cc3c(F)cc(F)cc3F)c2C)c2ccccc2n1 [Example 50, N-[3,5-dimethyl-1-(2,4,6-trifluorobenzyl)-1H-pyrazol-4-yl]-2-methoxyquinoline-4-carboxamide]	50 nM
COc1cc(C(=O)Nc2c(C)nn(Cc3ccccc3C)c2C)c2ccccc2n1 [Example 51, N-[3,5-dimethyl-1-(2-methylbenzyl)-1H-pyrazol-4-yl]-2-methoxyquinoline-4-carboxamide]	50 nM
Cc1cccc(Cn2nc(C)c(NC(=O)c3cc(C(F)(F)F)nc4ccc(Br)cc34)c2C)c1 [Example 52, 6-bromo-N-[3,5-dimethyl-1-(3-methylbenzyl)-1H-pyrazol-4-yl]-2-(trifluoromethyl)quinoline-4-carboxamide]	52.1 nM
Cc1cc(C(=O)Nc2c(C)nn(Cc3ccc(F)cc3)c2C)c2cccc(Br)c2n1 [Example 53, 8-bromo-N-[1-(4-fluorobenzyl)-3,5-dimethyl-1H-pyrazol-4-yl]-2-methylquinoline-4-carboxamide]	52.4 nM
Cc1ccc(Cn2nc(C)c(NC(=O)c3cc(C(F)(F)F)nc4ccc(Br)cc34)c2C)cc1 [Example 54, 6-bromo-N-[3,5-dimethyl-1-(4-methylbenzyl)-1H-pyrazol-4-yl]-2-(trifluoromethyl)quinoline-4-carboxamide]	58.3 nM
COc1cc(C(=O)Nc2c(C)nn(Cc3ccc(F)c(F)c3)c2C)c2ccccc2n1 [Example 55, N-[1-(3,4-difluorobenzyl)-3,5-dimethyl-1H-pyrazol-4-yl]-2-methoxyquinoline-4-carboxamide]	59.3 nM
Cc1nn(Cc2ccc(OC(F)(F)F)cc2)c(C)c1NC(=O)c1cc(C(F)(F)F)nc2ccc(Br)cc12 [Example 56, 6-bromo-N-{3,5-dimethyl-1-[4-(trifluoromethoxy)benzyl]-1H-pyrazol-4-yl}-2-(trifluoromethyl)quinoline-4-carboxamide]	60.4 nM
Cc1nn(Cc2c(F)cc(F)cc2F)c(C)c1NC(=O)c1cc(C(F)(F)F)nc2c(Cl)cc(Cl)cc12 [Example 57, 6,8-dichloro-N-[3,5-dimethyl-1-(2,4,6-trifluorobenzyl)-1H-pyrazol-4-yl]-2-(trifluoromethyl)quinoline-4-carboxamide]	66.7 nM
Cc1ccc2nc(C)cc(C(=O)Nc3c(C)nn(Cc4ccc(OC(F)(F)F)cc4)c3C)c2c1 [Example 58, N-{3,5-dimethyl-1-[4-(trifluoromethoxy)benzyl]-1H-pyrazol-4-yl}-2,6-dimethylquinoline-4-carboxamide]	77.1 nM
Cc1nn(Cc2ccccc2)c(C)c1NC(=O)c1cc(C(F)(F)F)nc2c(Cl)cc(Cl)cc12 [Example 59, N-(1-benzyl-3,5-dimethyl-1H-pyrazol-4-yl)-6,8-dichloro-2-(trifluoromethyl)quinoline-4-carboxamide]	92.6 nM
Cc1nn(Cc2ccc(OC(F)(F)F)cc2)c(C)c1NC(=O)c1cc(C(F)(F)F)nc2c(Cl)cc(Cl)cc12 [Example 60, 6,8-dichloro-N-{3,5-dimethyl-1-[4-(trifluoromethoxy)benzyl]-1H-pyrazol-4-yl}-2-(trifluoromethyl)quinoline-4-carboxamide]	97.9 nM
COc1cc(C(=O)Nc2c(C)nn(Cc3ccc(C)cc3)c2C)c2ccccc2n1 [Example 61, N-[3,5-dimethyl-1-(4-methylbenzyl)-1H-pyrazol-4-yl]-2-methoxyquinoline-4-carboxamide]	110 nM
Cc1ccc2nc(C)cc(C(=O)Nc3c(C)nn(Cc4ccc(F)cc4)c3C)c2c1 [Example 62, N-[1-(4-fluorobenzyl)-3,5-dimethyl-1H-pyrazol-4-yl]-2,6-dimethylquinoline-4-carboxamide]	127 nM
Cc1nn(Cc2ccc(F)cc2)c(C)c1NC(=O)c1cc(C(F)(F)F)nc2ccc(OC(F)(F)F)cc12 [Example 63, N-[1-(4-fluorobenzyl)-3,5-dimethyl-1H-pyrazol-4-yl]-6-(trifluoromethoxy)-2-(trifluoromethyl)quinoline-4-carboxamide]	129 nM
Cc1ccc2nc(C)cc(C(=O)Nc3c(C)nn(Cc4ccc(F)c(F)c4)c3C)c2c1 [Example 64, N-[1-(3,4-difluorobenzyl)-3,5-dimethyl-1H-pyrazol-4-yl]-2,6-dimethylquinoline-4-carboxamide]	130 nM
